{
  "source": "patent US4450149A",
  "about": "“Radiohalogenation method” (Research Corporation, priority 1981, dated 1984)",
  "key": {"[1]": {"settings": "reported in J. Nucl. Med., 22:0000, 1981; average of 5 rats (standard deviation); cited from earlier work"}, "[2]": {"test": "Tissue distribution study of radioiodinated fatty acid, 5 min post intravenous injection", "format": "in vivo, female Sp-raque-Dawley rats", "settings": "5 min post injection, approximately 25 μCi, Prepared Via Present Method, average of 5 rats (standard deviation)", "method": "Tissue Distribution Study The radioiodinated 19-^125 I-iodononadecanoicacid was evaluated in female Sp-raque-Dawley rats weighing 250-350 g. The rats were given food and water ad libidum. For the tissue distribution study, approximately 25 μCi of the fatty acid in a physiological formulation (EtOH/Tween 80/0.9% saline: 2.5 ml/0.65 ml/22 ml) was administered intraveneously to ether anesthetized rats. Five animals were sacrificed at 5 min post injection. Representative 50-100 mg samples of heart, liver, lung, blood, and muscle were removed and cleaned of fat and connective tissue. Samples were counted in an auto-gamma scintillation counter and values corrected for radioactive decay, counting efficiency and background. The resulting tissue concentration values were normalized to a per kilogram body weight and are reported in % kg dose/g. as shown in Table 8."}},
  "note": "Like-named read-outs stand apart in the source and are kept apart here.",
  "data": [
    {"smiles": "O=C(O)CCCCCCCCCCCCCCCCCC[125I]", "note": "[19-^125 I--iodononadecanoic acid]", "values": [
      {"measurement": "tissue concentration, Blood", "setting": "[1]", "value": "0.15 ± 0.01", "unit": "% kg dose/g"},
      {"measurement": "tissue concentration, Heart", "setting": "[1]", "value": "0.88 ± 0.23", "unit": "% kg dose/g"},
      {"measurement": "tissue concentration, Liver", "setting": "[1]", "value": "0.53 ± 0.02", "unit": "% kg dose/g"},
      {"measurement": "tissue concentration, Lung", "setting": "[1]", "value": "0.28 ± 0.04", "unit": "% kg dose/g"},
      {"measurement": "tissue concentration, Muscle", "setting": "[1]", "value": "0.19 ± 0.00", "unit": "% kg dose/g"},
      {"measurement": "tissue concentration, Blood", "setting": "[2]", "value": "0.13 ± 0.00", "unit": "% kg dose/g"},
      {"measurement": "tissue concentration, Heart", "setting": "[2]", "value": "0.71 ± 0.01", "unit": "% kg dose/g"},
      {"measurement": "tissue concentration, Liver", "setting": "[2]", "value": "0.47 ± 0.03", "unit": "% kg dose/g"},
      {"measurement": "tissue concentration, Lung", "setting": "[2]", "value": "0.24 ± 0.02", "unit": "% kg dose/g"},
      {"measurement": "tissue concentration, Muscle", "setting": "[2]", "value": "0.14 ± 0.00", "unit": "% kg dose/g"}
    ]}
  ]
}
